Experimental data taken from patent EP1743636A1, “Combination of a substituted pyrazoline compound and a drug used in food-related disorders” (LABORATORIOS DEL DR. ESTEVE, S.A., priority 2005, dated 2007).
Read-outs that look alike come from different tables or passages of the source.

Key:
[1] = tested on: Male NMRI mice; assay: Mouse tetrad model: catalepsy; type: in vivo; conditions: for Antagonistic Effect C: Catalepsy: 5 mg/kg i.v. prior to Win 55212-2 in a dose of 1,25mg/kg i.v.; for Agonistic effect C: Catalepsy: 5 mg/kg i.v., measured 20 minutes after injection
Source text: (§1) Substances with affinity for cannabinoid receptors are known to produce a wide range of pharmacological effects. It is also known that intravenous administration of a substance with affinity for cannabinoid receptors in mice produces analgesia , hypothermia, sedation and catalepsy. Individually, none of these effects can be considered as proof that a tested substance has affinity for cannabinoid-receptors, since all of these effects are common for various classes of centrally active agents. However, substances, which show all of these effects, i.e. substances that are active in this so-called tetrad model are considered to have affinity for the cannabinoid receptors. It has further been shown that cannabinoid receptor antagonists are higly effective in blocking the effects of a cannabinoid agonist in the mouse tetrad model.
(§2) The tetrad model is described, for example, in the publication of A. C. Howlett et al, International Union of Pharmacology XXVII. Classification of Cannabinoid Receptors, Pharmacol Rev 54, 161-202, 2002 and David R. Compton et al., "In-vivo Characterization of a Specific Cannabinoid Receptor Antagonist (SR141716A) :Inhibition of Tetrahydrocannbinol- induced Responses and Apparent Agonist Activity", J. Pharmacol. Exp. Ther. 277 , 2, 586-594, 1996. The corresponding parts of the description are hereby incorporated by reference. […]
(§3) Before testing in the behavioral procedures given below, mice are acclimatized to the experimental setting. Pre-Treatment control values are determined for analgesia hot plate latency (in seconds), rectal temperature, sedation and catalepsy.
(§4) In order to determine the agonistic activty of the substance to be tested, the mice are injected intravenously with the substance to be tested or the vehicle alone. 15 minutes after injection, latency in hot plate analgesia is measured. Rectal temperature, sedation and catalepsy are measured 20 minutes after injection.
(§5) In order to determine the antagonistic activity the identical procedure is used as for the determination of the agonistic effects, but with the difference that the substance to be evaluated for its antagonistic activity is injectected 5 minutes before the intravenous injection of 1.25 mg/kg Win-55,212 a known cannabinoid-receptor agonist.
Catalepsy is determined according to the method described in Alpermann H. G. et al. "Pharmacological effets of Hoe 249: A new potential antidepressant", Drugs Dev. […]
The cataleptic effect of the substance to be tested is evaluated according to the duration of catalepsy, whereby the animals are placed head downwards with their kinlegs upon the top of the wooden block. […]
The percentage of catalepsy is determined according ot the following formula: %Catalepsy = arithmetic mean/6 × 100 [formula] […]

[2] = tested on: Male NMRI mice; assay: Mouse tetrad model: hypothermia; type: in vivo; conditions: for Antagonistic Effect B: Hypothermia: 5 mg/kg i.v. prior to Win 55212-2 in a dose of 1,25mg/kg i.v.; for Agonistic effect B: Hypothermia: 5 mg/kg i.v., measured 20 minutes after injection
Source text: as §1, §2, §3, §4, §5
Hypothermia is determined according to the method described in David R. Compton et al. "In-vivo Characterization of a Specific Cannabinoid Receptor Antagonist (SR141716A) Inhibition of Tetrahydrocannbinol- induced Responses and Apparent Agonist Activity", J. Pharmacol Exp Ther. 277 , 2, 586-594, 1996. […]
The base-line rectal temperatures are determined with a thermometer (Yello Springs Instruments Co., Panlabs) and a thermistor probe inserted to 25mm before the administration of the substance to be tested. […]

[3] = tested on: Male NMRI mice; assay: Mouse tetrad model: sedation and ataxia; type: in vivo; conditions: for Antagonistic Effect D: Sedation: 5 mg/kg i.v. prior to Win 55212-2 in a dose of 1,25mg/kg i.v.; for Agonistic effect D: Sedation: 5 mg/kg i.v., measured 20 minutes after injection
Source text: as §1
The tetrad model is described, for example, in the publication of A. C. Howlett et al, International Union of Pharmacology XXVII. Classification of Cannabinoid Receptors, Pharmacol Rev 54, 161-202, 2002 and David R. Compton et al., "In-vivo Characterization of a Specific Cannabinoid Receptor Antagonist (SR141716A) :Inhibition of Tetrahydrocannbinol- induced Responses and Apparent Agonist Activity", J. Pharmacol. Exp. Ther. 277 , 2, 586-594, 1996. The corresponding parts of the description are hereby incorporated by reference.
Male NMRI mice with a weight of 20-30 g (Harlan, Barcelona, Spain) are used in all of the following experiments.
as §3, §4, §5
Sedation and ataxia is determined according to the method described in Desmet L. K. C. et al. "Anticonvulsive properties of Cinarizine and Flunarizine in Rats and Mice", Arzneim. -Forsch. (Frug Res) 25, 9, 1975. […]
The percentage of sedation is determined according to the formula: %of sedation = arithmetic mean/3 × 100 [formula]
(§6) The determinination of cannabinoid activity in-vivo was determined as described above. […]

[4] = tested on: Male NMRI mice; assay: Mouse tetrad model: hot plate analgesia; type: in vivo; conditions: for Antagonistic Effect A: Hot-Plate test: 5 mg/kg i.v. prior to Win 55212-2 in a dose of 1,25mg/kg i.v.; for Agonistic effect A: Hot-Plate test: 5 mg/kg i.v., measured 15 minutes after injection
Source text: as §1, §2, §3, §4, §5
The hot plate analgesia is determined according to the method described in Woolfe D. et al. "The evaluation of analgesic action of pethidine hydrochloride (Demerol)", J. Pharmacol. Exp. Ther. 80, 300-307,1944. […]
The mice are placed on a hot plate (Harvard Analgesimeter) at 55 ± 0.5 °C until they show a painful sensation by licking their paws or jumping and the time for these sensations to occur is recorded. This reading is considered the basal value (B). […]
as §6

[5] = target: T1, transfected human CB2 receptors (Homo sapiens, UniProt P34972); assay: In-vitro determination of affinity to CB2 receptor (radioligand [3H]-CP55940); type: binding; conditions: for Ki: radioligand [3H]-CP55940; for inhibition at 1 µM: read-out: CB2-Receptor % Inhibition 10^-6 M
T1 construct: purchased Receptor Biology, Inc
T1 sequence (P34972 whole entry): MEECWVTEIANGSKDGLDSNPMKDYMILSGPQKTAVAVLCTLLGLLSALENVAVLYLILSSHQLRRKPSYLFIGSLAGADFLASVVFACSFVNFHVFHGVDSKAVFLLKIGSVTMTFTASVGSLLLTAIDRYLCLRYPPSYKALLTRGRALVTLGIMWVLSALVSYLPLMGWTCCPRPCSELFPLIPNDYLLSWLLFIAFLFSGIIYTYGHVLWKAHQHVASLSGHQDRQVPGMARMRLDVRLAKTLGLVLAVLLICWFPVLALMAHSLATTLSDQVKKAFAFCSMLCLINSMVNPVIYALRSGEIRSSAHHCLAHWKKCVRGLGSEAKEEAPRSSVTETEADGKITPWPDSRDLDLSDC
Experimental: (§7) The in-vitro determination of the affinity of the substituted pyrazoline compounds to CB1/CB2-Rezeptors is carried out as described in the publication of Ruth A. Ross, Heather C. Brockie et al., "Agonist-inverse agonist characterization at CB1 and CB2 cannabinoid receptors of L-759633, L759656 and AM630", British Journal of Pharmacology, 126, 665-672, (1999), whereby the transfected human CB1 and CB2 receptors of Receptor Biology, Inc. are used. The radioligand used for both receptors is [^3H]-CP55940. The respective parts of the description is hereby incorporated by reference and forms part of the present disclosure. The affinity of the inventive substituted pyrazoline compounds to CB1/CB2 receptors was determined as described above.

[6] = target: T2, transfected human CB1 receptors (Homo sapiens, UniProt P21554); assay: In-vitro determination of affinity to CB1 receptor (radioligand [3H]-CP55940); type: binding; conditions: for inhibition at 1 µM: read-out: CB1-Receptor % Inhibition 10^-6 M
T2 construct: purchased Receptor Biology, Inc
T2 sequence (P21554 whole entry): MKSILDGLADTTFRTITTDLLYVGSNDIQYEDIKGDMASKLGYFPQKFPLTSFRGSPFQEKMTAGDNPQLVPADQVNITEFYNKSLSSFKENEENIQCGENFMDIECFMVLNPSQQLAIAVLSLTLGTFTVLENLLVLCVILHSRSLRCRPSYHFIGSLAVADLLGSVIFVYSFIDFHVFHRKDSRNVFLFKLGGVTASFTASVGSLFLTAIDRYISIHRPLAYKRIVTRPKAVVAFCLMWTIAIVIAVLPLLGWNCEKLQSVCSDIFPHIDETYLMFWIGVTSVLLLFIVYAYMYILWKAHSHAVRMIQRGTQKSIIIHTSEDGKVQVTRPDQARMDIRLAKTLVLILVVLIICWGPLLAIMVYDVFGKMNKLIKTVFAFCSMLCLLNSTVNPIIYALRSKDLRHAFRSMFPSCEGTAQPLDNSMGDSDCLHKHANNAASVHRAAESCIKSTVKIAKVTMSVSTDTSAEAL
Experimental: as §7

Structure (SMILES)	Antagonistic Effect C: Catalepsy [1]	Agonistic effect C: Catalepsy [1]	Antagonistic Effect B: Hypothermia [2]	Agonistic effect B: Hypothermia [2]	Antagonistic Effect D: Sedation [3]	Agonistic effect D: Sedation [3]	Antagonistic Effect A: Hot-Plate test [4]	Agonistic effect A: Hot-Plate test [4]	Ki [5] [nM]	inhibition at 1 µM [5] [%]	Ki [6] [nM]	inhibition at 1 µM [6] [%]	Ki ([6]; radioligand [3H]-CP55940, read-out: CB1-Receptor Ki) [nM]
O=C(NN1CCCCC1)C1=NN(c2ccc(Cl)cc2Cl)C(c2ccc(Cl)cc2)C1 (stereo not drawn) [Example 1, N-piperidinyl-5-(4-chlorophenyl)-1-(2,4-dichlorophenyl)-4,5-dihydro-1H-pyrazole-3-carboxamide]	100	0	100	0	100	0	74	0	> 1000	33	< 25	93	–
O=C(C1=NN(c2ccc(Cl)cc2Cl)C(c2ccc(Cl)cc2)C1)N1CCCCC1 (stereo not drawn) [Example 5, [5-(4-Chloro-phenyl)-1-(2,4-dichloro-phenyl)-4,5-dihydro-1H-pyrazol-3-yl]-piperidin-1-yl-methanone]	20	0	40	50	20	0	50	0	~1000	54	–	79	111
